Reference: PubChem BioAssay AID1919014 (Molecular Pharmacology Branch, DTP, NCI, 2023)
Several values for one entry are separate records, joined by “and”; a condition that tells them apart may be missing. Identical values can stand only once.

System: NCI-H1341 complex spheroids, percent test/control
Assay: Anticancer human tumor NCI-H1341 cell line growth inhibition [AhR];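 further: spheroids exposed to agents for seven days before readout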
Conditions: for viability, T/C: stronger effect = lower value
Procedure, shortened: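 Agents were dosed in half-log steps down from roughly clinical Cmax, or from 10 microM where Cmax was unknown, alone and with AhR antagonists. Read-out: percent test/control growth of tumor spheroids containing HUVEC and MSC stromal cells.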

[1] = curve of first compound, second compound 0.1 µM
[2] = curve of first compound, second compound 0.316 µM
[3] = curve of first compound, second compound 1 µM
[4] = curve of first compound, second compound 3.16 µM
[5] = curve of first compound, second compound 10 µM

For `CCc1c2c(nc3ccc(O)cc13)-c1cc3c(c(=O)n1C2)COC(=O)[C@]3(O)CC` + CC(CO)NC(=O)c1cc(-c2ccc(Cl)cc2)nn(-c2cnn(C)c2)c1=O, the IC50 [1] was 12.3 nM, the IC50 [2] was 7.9 nM and the IC50 [3] was 9.6 nM. It also gave an IC50 [4] of 5.17 nM, an IC50 [5] of 3.47 nM and a viability, T/C (second compound 0.1 µM, first compound 0.000949 µM) of 67.7%. The viability, T/C (second compound 0.1 µM, first compound 0.003 µM) was 74%, the viability, T/C (second compound 0.1 µM, first compound 0.00949 µM) was 46.6% and the viability, T/C (second compound 0.1 µM, first compound 0.03 µM) was 38.8%. For the same compound, the viability, T/C (second compound 0.1 µM, first compound 0.0949 µM) was 30.7%, the viability, T/C (second compound 0.1 µM, first compound 0.3 µM) was 16.9% and the viability, T/C (second compound 0.316 µM, first compound 0.000949 µM) was 71.8%. For the same compound, the viability, T/C (second compound 0.316 µM, first compound 0.003 µM) was 61.8%, the viability, T/C (second compound 0.316 µM, first compound 0.00949 µM) was 48.1% and the viability, T/C (second compound 0.316 µM, first compound 0.03 µM) was 33.4%. It also gave a viability, T/C (second compound 0.316 µM, first compound 0.0949 µM) of 26.5%, a viability, T/C (second compound 0.316 µM, first compound 0.3 µM) of 16% and a viability, T/C (second compound 1 µM, first compound 0.000949 µM) of 62.8%. It also gave a viability, T/C (second compound 1 µM, first compound 0.003 µM) of 67.6%, a viability, T/C (second compound 1 µM, first compound 0.00949 µM) of 48.2% and a viability, T/C (second compound 1 µM, first compound 0.03 µM) of 31.4%. For the same compound, the viability, T/C (second compound 1 µM, first compound 0.0949 µM) was 29.5%, the viability, T/C (second compound 1 µM, first compound 0.3 µM) was 17.4% and the viability, T/C (second compound 3.16 µM, first compound 0.000949 µM) was 73%. It also gave a viability, T/C (second compound 3.16 µM, first compound 0.003 µM) of 53.2%, a viability, T/C (second compound 3.16 µM, first compound 0.00949 µM) of 39% and a viability, T/C (second compound 3.16 µM, first compound 0.03 µM) of 37.4%. It also gave a viability, T/C (second compound 3.16 µM, first compound 0.0949 µM) of 26.5%, a viability, T/C (second compound 3.16 µM, first compound 0.3 µM) of 14.1% and a viability, T/C (second compound 10 µM, first compound 0.000949 µM) of 61%. The viability, T/C (second compound 10 µM, first compound 0.003 µM) was 47.9%, the viability, T/C (second compound 10 µM, first compound 0.00949 µM) was 43.8% and the viability, T/C (second compound 10 µM, first compound 0.03 µM) was 32.4%. It also gave a viability, T/C (second compound 10 µM, first compound 0.0949 µM) of 23.4% and a viability, T/C (second compound 10 µM, first compound 0.3 µM) of 10.8%.
Compound `Nc1ncn(C2CC(O)C(CO)O2)c(=O)n1` (configuration not stated) + CC(CO)NC(=O)c1cc(-c2ccc(Cl)cc2)nn(-c2cnn(C)c2)c1=O has an IC50 [1] of 154 nM, an IC50 [2] of 179 nM and an IC50 [3] of 85.3 nM. The IC50 [4] was 207 nM, the IC50 [5] was 215 nM and the viability, T/C (second compound 0.1 µM, first compound 0.00316 µM) was 76.5%. The viability, T/C (second compound 0.1 µM, first compound 0.01 µM) was 85.7%, the viability, T/C (second compound 0.1 µM, first compound 0.0316 µM) was 81.8% and the viability, T/C (second compound 0.1 µM, first compound 0.1 µM) was 59.3%. It also gave a viability, T/C (second compound 0.1 µM, first compound 0.316 µM) of 34.2%, a viability, T/C (second compound 0.1 µM, first compound 1 µM) of 26.6% and a viability, T/C (second compound 0.316 µM, first compound 0.00316 µM) of 92.1%. For the same compound, the viability, T/C (second compound 0.316 µM, first compound 0.01 µM) was 99%, the viability, T/C (second compound 0.316 µM, first compound 0.0316 µM) was 85.2% and the viability, T/C (second compound 0.316 µM, first compound 0.1 µM) was 61.8%. The viability, T/C (second compound 0.316 µM, first compound 0.316 µM) was 39.1%, the viability, T/C (second compound 0.316 µM, first compound 1 µM) was 31.8% and the viability, T/C (second compound 1 µM, first compound 0.00316 µM) was 92.2%. The viability, T/C (second compound 1 µM, first compound 0.01 µM) was 86.3%, the viability, T/C (second compound 1 µM, first compound 0.0316 µM) was 81.3% and the viability, T/C (second compound 1 µM, first compound 0.1 µM) was 45%. For the same compound, the viability, T/C (second compound 1 µM, first compound 0.316 µM) was 32.5%, the viability, T/C (second compound 1 µM, first compound 1 µM) was 33.7% and the viability, T/C (second compound 3.16 µM, first compound 0.00316 µM) was 79.8%. It also gave a viability, T/C (second compound 3.16 µM, first compound 0.01 µM) of 65.6%, a viability, T/C (second compound 3.16 µM, first compound 0.0316 µM) of 67.1% and a viability, T/C (second compound 3.16 µM, first compound 0.1 µM) of 66.3%. The viability, T/C (second compound 3.16 µM, first compound 0.316 µM) was 40.6%, the viability, T/C (second compound 3.16 µM, first compound 1 µM) was 30.9% and the viability, T/C (second compound 10 µM, first compound 0.00316 µM) was 82.1%. It also gave a viability, T/C (second compound 10 µM, first compound 0.01 µM) of 69.6%, a viability, T/C (second compound 10 µM, first compound 0.0316 µM) of 79.8% and a viability, T/C (second compound 10 µM, first compound 0.1 µM) of 67.5%. It also gave a viability, T/C (second compound 10 µM, first compound 0.316 µM) of 41% and a viability, T/C (second compound 10 µM, first compound 1 µM) of 27.2%.
In the case of `CC1(C)CCC(CN2CCN(c3ccc(C(=O)NS(=O)(=O)c4ccc(NCC5CCOCC5)c([N+](=O)[O-])c4)c(Oc4cnc5[nH]ccc5c4)c3)CC2)=C(c2ccc(Cl)cc2)C1`, the viability, T/C (compound 0.0316 µM) is reported as 113% and 85.5% and 86.1%, the viability, T/C (compound 0.1 µM) is reported as 97% and 69.1% and 76.1% and the viability, T/C (compound 0.316 µM) is reported as 95.7% and 108% and 96.4%. For the same compound, the viability, T/C (compound 1 µM) was 101% and 68% and 72.1%, the viability, T/C (compound 3.16 µM) was 92.2% and 38.2% and 39.1% and the viability, T/C (compound 10 µM) was 85.7% and 14% and 10.1%. The IC50 (curve of compound) was > 10000 nM and 2070 nM and 2200 nM.
